Experimental data from patent US11957684B2, “Treatment of heavy menstrual bleeding associated with uterine fibroids” (Sumitomo Pharma Switzerland GmbH, priority 2016, dated 2024).
Values joined by “and” are separate entries in the source; they are usually repeats but may differ in a detail not shown here. Identical values can stand only once.

Key:
clinical = conditions: for half-life: human, in vivo
Source text: (See J. W. Ng, et al., “Dose-Dependent Suppression of Gonadotropins and Ovarian Hormones by Elagolix in Healthy Premenopausal Females” (poster, 2016); J. Grundy, et al., […] (2008), Vol 83: Supplement 1, S9).

[1] = system: estradiol (E2), FSH, LH, progesterone; test: Example 4: pharmacodynamics (serum hormones, urine 6β-hydroxycortisol to cortisol ratio); assay type: in vivo, human; conditions: 10 mg to 40 mg QD
Source text: (§1) Descriptive statistics were used to summarize pharmacodynamic parameters: serum concentrations of estradiol (E2), FSH, LH, progesterone, growth hormone (GH), prolactin (PRL), thyrotropin, adrenocorticotropic hormone (ACTH) and urine 6β-hydroxycortisol to cortisol ratios (Q).

[2] = as above; assay type: in vivo, human; conditions: in vivo
Source text: as §1

FIG. 5B = test: FIG. 5B
Source text: Table printed on a drawing sheet, FIG. 5B
The patent's description of the figure: FIGS. 5A-C are tables of plasma pharmacokinetic (PK) parameters for Cohorts 1 to 6 in accordance with Example 4.
First reader's note: Plasma PK parameters by dose cohort; the series starts in FIG. 5A on another sheet and continues in FIG. 5C.

CONC(=O)Nc1ccc(-c2sc3c(c2CN(C)C)c(=O)n(-c2ccc(OC)nn2)c(=O)n3Cc2c(F)cccc2F)cc1 [Compound 1, N-(4-(1-(2,6-difluorobenzyl)-5-((dimethylamino)methyl)-3-(6-methoxy-3-pyridazinyl)-2,4-dioxo-1,2,3,4-tetrahydrothieno[2,3-d]pyrimidin-6-yl)phenyl)-N′-methoxyurea]
E2 in the majority of subjects (clinical; 40 mg per day): below 10 pg/mL | half-life (clinical; T1/2, highest found): ~61 h | half-life (clinical; half-life (T1/2)): 37 to 42 h | ovulation (post-ovulation progesterone increase) [1]: prevented ovulation | effect on endogenous GH, PRL, thyrotropin, and ACTH [2]: no apparent effect | Tmax (hr) | Median (FIG. 5B): 0.775 h and 1.015 h and 1.500 h
